Where “and” joins values, the source holds several entries; their conditions need not be identical. Equal entries are not always repeated. Structures can show the parent of a compound that is named as a salt.
Columns and labels:
NMDA receptor = assay: Electrophysiology, NMDA response in rat hippocampal neurons; format: cell-based; settings: FIG. 4; average of 6 experiments
Experimental: Experiments were carried out in 35-mm tissue culture dishes on the stage of an inverted phase contrast microscope. Whole cell currents were recorded by the whole cell variant of the patch clamp technique (Hamill, O. P., et al., Pfagers Arch. 891:85-100 (1981)). Patch electrodes had tip openings of about […] and resistances of 3-8 M.OMEGA. using an intracellular solution comprised of the following (in mM): 140 CsCl, 11 EGTA, and 10 HEPES (pH adjusted to 7.2 with CsOH). In experiments in which a high concentration of glycine was used, the intracellular solution was replaced with a low chloride (10 mM) pipette solution. This solution contained the following (in mM): 140 potassium gluconate, 10 KCl, 8 sodium gluconate, 11 EGTA, and 10 HEPES (pH adjusted to 7.2 with KOH). […]
The degree of modulation of the amino acid response by steroid, the percentage change, is expressed as [(I'/I)-1]×100%, where I is the average of control responses obtained from the same cell before application and after washout of steroid and I' is the agonist-induced current in the presence of steroid. Throughout, results are expressed as mean±S.E.; statistical comparison of groups was carried out using Student's t test.
The electrophysiology of additional pregnenolone derivatives were analyzed as described in Example 1. […]

kainate receptors = assay: Whole cell patch clamp, kainate-induced current in cultured chick spinal cord neurons; format: cell-based; settings: 100 μM steroid; -70 mV; sulfate
Experimental: Cultures of dissociated spinal cord neurons were prepared as previously described (Farb, D. H., et al., J. Cell Biol., 80:651-661 (1979)). Briefly, the dissociated cells from 7-day chick embryos were plated on collagen-coated 35-mm tissue culture dishes in Eagle's minimum essential medium supplemented with 2.4 mM glutamine, 10% (v/v) heat-inactivated horse serum, 5% (v/v) chick embryo extract and antibiotics. Cultures were maintained in a humidified atmosphere of 5% CO2, 95% air at 37°. Cytarabine (1 μM) was added to the culture medium after 36 hr. of the initial plating to inhibit the proliferation of non-neuronal cells. One day later, this medium was replaced with a similar medium supplemented with 20.5 mM glucose, 19 mM KCl, and 2.5% chick embryo extract. Fresh medium was added twice weekly. Cultured neurons were used in experiments within 2-4 weeks after plating.
Experiments were carried out in 35-mm tissue culture dishes on the stage of an inverted phase contrast microscope. Whole cell currents were recorded by the whole cell variant of the patch clamp technique (Hamill, O. P., et al., Pfagers Arch. 891:85-100 (1981)). Patch electrodes had tip openings of about […] and resistances of 3-8 M.OMEGA. using an intracellular solution comprised of the following (in mM): 140 CsCl, 11 EGTA, and 10 HEPES (pH adjusted to 7.2 with CsOH). […]

Row | Structure (SMILES) | % inhibition of NMDA response in rat hippocampal cells (NMDA receptor) | inhibition of the 50 μM kainate-induced current (kainate receptors)
1 | CC(=O)[C@H]1CC[C@H]2[C@@H]3CC[C@@H]4C[C@H](OC(=O)CCC(=O)O)CC[C@]4(C)[C@H]3CC[C@]12C [5β3αHS, 3α-hydroxy-5β-pregnan-20-one hemisuccinate] | approximately 20% | –
2 | CC(=O)[C@H]1CC[C@H]2[C@@H]3CC[C@@H]4C[C@H](OS(=O)(=O)O)CC[C@]4(C)[C@H]3CC[C@]12C [5β3αS, 3α-hydroxy-5β-pregnan-20-one sulfate] | – | 37% and 37.4±4.7%

— US6083941A, “Inhibition of NMDA receptor activity by pregnenolone sulfate derivatives” (Trustees of Boston University, priority 1998, dated 2000)
